The structures appear in SMILES notation.

The conditions of data set [1]: oral, cited from earlier work; for impact of food on bioavailability: literature.
In data set [2] the test system is sebaceous glands. The note with it: severe acne; published reports (Geiger); cited from earlier work.
For data set [3] the following is noted: in vivo; cited from earlier work.
For data set [4], the system named is patients treated for acne. In words: Adverse event monitoring in studies of orally administered tazarotene for acne (Table 2). It is filed as in vivo, human. The note with it: combined data from Studies 1 and 2 (N = 223). On the procedure:
Studies are conducted on orally administered tazarotene for the treatment of acne. Adverse events (side effects) are monitored.

The subject of data set [5] is patients. In words: Two placebo-controlled 24-week safety studies of oral tazarotene plus dose-response evaluations. The class given is in vivo, human. The note with it: 4.5 mg orally once daily; two safety trials; placebo 17%. The protocol: Two multicenter, double-blind, randomized, placebo-controlled 24-week studies of identical design are conducted to evaluate the safety of oral tazarotene. In addition, 16- to 24-week dose-response evaluations are performed.
In the two safety trials, the incidence of adverse side effects with a 4.5 mg dose administered orally once daily is compared to the incidence of the same side effects with a placebo. […] The majority of these were mild in severity and typical of adverse effects associated with oral retinoids.

The subject of data set [6] is patients having nodulocystic acne. In words: Two placebo-controlled dose-ranging safety studies of oral tazarotene in nodulocystic acne. It is filed as in vivo, human. The note with it: for cheilitis: treatment period; for Emotional lability: all cases mild. On the procedure: Two placebo-controlled dose-ranging studies are conducted to evaluate the safety of oral tazarotene in patients having nodulocystic acne. In the first study, patients receive orally administered tazarotene at daily doses of 0.4 mg to 2.8 mg in 96 (71+25) patients (12 weeks treatment plus 12 weeks post-treatment). In the second study, daily doses of 0.75 mg to 6 mg tazarotene are administered to 181 patients (24 weeks treatment plus 12 weeks post-treatment).

In data set [7] the test system is severe psoriasis. In words: Patient with severe psoriasis on Ortho-Novum treated with tazarotene. It is filed as in vivo, human. The note with it: 6 mg per day; after 30 days. The source says:
The patient presents symptoms of severe psoriasis. The symptoms include lesions approximately 4 to 10 centimeters across appearing as raised patches of wine red skin many of which are covered in silvery white scales. The lesions are mostly dry and rough, and quite often noticeably warm to the touch. The lesions are present on the elbows, knees, scalp, and groin area. The patient experiences intense burning and itching associated with the lesions.
The patient is currently taking Ortho-Novum® for contraception.
Tazarotene at a dose of 6 mg per day is prescribed.

In data set [8] the test system is severe nodulocystic acne. In words: Double-blind, randomized, placebo-controlled study of oral tazarotene in severe nodulocystic acne. It is filed as in vivo, human. The source says:
A multicenter, double-blind, randomized, placebo-controlled parallel-group study is undertaken to determine the efficacy of orally administered tazarotene in treating severe nodulocystic acne.
In addition, washout periods for other medications for this study are: 1 week for vitamin A supplements >5000 IU; 2 weeks for topical anti-acne medications (e.g., retinoids, azelaic acid, benzoyl peroxide); 2 weeks for topical or systemic antibiotic therapy that may alter the course of acne; and 6 months for systemic retinoids.
Patients are randomized to receive placebo or oral tazarotene (0.75, 1.5, 3, or 6 mg), in a 1:1:1:1:1 ratio once daily for 24 weeks. After this, the patients are followed without treatment for an additional 12 weeks. Patients discontinuing from the treatment period due to adverse effects or lack of efficacy are eligible for entry into the post-treatment phase.
In the study, overall acne severity is rated as: none (no inflammatory acne lesions); mild (few to several papules or pustules, no nodulocystic lesions); moderate (several to many papules or pustules, few to several nodulocystic lesions); and severe (numerous or extensive papules or pustules, many, for example, at least about 5 or at least about 10, nodulocystic lesions). […]
(§1) Sebum output is assessed every 4 weeks at selected centers using the Sebutape® patches, sold by Cuderm Corporation. Urinalysis, chemistry, and hematology values are monitored. Bone formation and resorption assessments (serum bone alkaline phosphatase and serum amino terminal telopeptides, respectively) at selected centers are monitored.
Bone mineral density of spine and proximal femur at selected centers is monitored. Ligament calcification or osteophyte formation (lateral X-ray of the cervical and thoracic spine, and ankle calcaneous) is monitored. Epiphyseal growth plate closure (internal oblique X-ray of the ankle in patients less than or equal to 21 years old) is monitored.

Data set [9] deals with sebum secretion. In words: Sebum output by Sebutape patches in the nodulocystic acne study. The conditions noted are these: oral 0.75 to 6 mg once daily; up to 86 patients. It is filed as in vivo, human. On the procedure: as §1
Sebum secretion output is assessed in a maximum of 86 patients (with successively fewer patients at each timepoint—e.g., 60 patients at week 24, 46 patients at week 36). Importantly, there is no consistent statistically significant differences in sebum production across treatment groups using the Sebutape® method of assessment.

The nature of data set [10]: Food effect on pharmacokinetics of tazarotenic acid after oral tazarotene (high-fat meal vs fast). It is filed as in vivo, human. The conditions noted are these: 6.3 mg oral tazarotene, healthy subjects; for average ratio of Cmax values (test/reference): high-fat meal vs 8-10 hour fast. On the procedure:
For the purposes of this application, the bioavailability of a drug may be based on the human pharmokinetic parameters of maximum blood concentration (Cmax) and Area under the blood concentration-time curve (AUC).
The LC-MS/MS test for simultaneous detection of tazarotene and tazarotenic acid may be run as follows. One ml of plasma (EDTA-treated) is diluted with 1.0 ml of water. Diluted plasma is extracted using solid phase extraction (SPE) on a C18 cartridge. The eluate is evaporated, reconstituted in a water/methanol-based mobile phase, and injected onto a 4.6×50 mm, 3 μm pore size C-8 reverse phase high pressure liquid chromatography (HPLC) column (Agilent, Wilmington, Del.). Compounds are gradient-eluted at 1.2 mL/min and detected using an API 3000 triple quadrupole mass spectrometer with an Atmospheric Pressure Chemical Ionization (APCI) source (PE-Sciex, Concord, Ontario, Canada). Molecular reaction monitoring enhances the sensitivity and selectivity of this assay by collisionally dissociating the protonated molecules for the analyte and an internal standard thereby forming the product ions. The specific precursor-product ion pair monitored are m/z 352→324 for tazarotene, m/z 359→331 for the tazarotene internal standard, m/z 324→294 for tazarotenic acid, and m/z 331+298 for the tazarotenic acid internal standard. The lower limit of quantitation at assay range tested is 0.1 ng/mL, with a coefficient of variation and deviation from nominal concentration of <15%.

The nature of data set [11]: PK and PD interaction studies of oral tazarotene with oral contraceptives. It is filed as in vivo, human. The conditions noted are these: tazarotene 1.1 mg or 6 mg daily with NE/EE or NGM/EE. On the procedure:
It is the objective of this study to determine if there are pharmacokinetic (PK) and pharmacodynamic (PD) interactions between tazarotene and commonly prescribed oral contraceptives (OCs) when coadministered together.
Three separate clinical studies are conducted to evaluate the PK and PD interactions of oral tazarotene and OCs in healthy volunteers. Two studies evaluate daily doses of norethindrone (NE)/ethinyl estradiol (EE) with daily doses of tazarotene 1.1 mg (N=27) and 6 mg (N=29). The third study assesses the daily doses of norgestimate (NGM)/EE with daily doses of tazarotene 6 mg (N=26). OCs are administered for three consecutive menstrual cycles. Daily doses of tazarotene are started during the 2nd cycle and continued through the end of the studies. PK parameters for EE, NE, and NGM (AUC0-24 and Cmax) are determined before tazarotene dosing and after tazarotene dosing on day 6 of the 2nd and 3rd cycles. Serum concentrations of luteinizing hormone (LH) and follicle-stimulating hormone (FSH)-markers of contraceptive efficacy are also evaluated before tazarotene dosing and after tazarotene dosing on days 2, 4, and 6 of the 2nd and 3rd cycles. Serum progesterone levels are assessed on days 18 and 20 of the 2nd and 3rd cycles. […]

The conditions of data set [12]: topical administration of tazarotene; 'often well less than'; cited from earlier work.

For `COc1cc(C)c(/C=C/C(C)=C/C=C/C(C)=C/C(=O)O)c(C)c1C` [Acitretin, acitretin], the “impact of food on bioavailability” value in data set [1] is “bioavailability is increased in the presence of food”.

In the case of `CC1=C(/C=C/C(C)=C/C=C/C(C)=C\C(=O)O)C(C)(C)CCC1` [Isotretinoin, isotretinoin], the “decrease in sebum secretion rate” value in [2] is recorded as “about 90%”. In addition, in data set [1], the “total dose needed to reach the same peak blood concentration in the fasted state vs following a high fat meal” value is recorded as “more than doubled” and the “impact of food on bioavailability” value was “bioavailability is increased in the presence of food”. Also, the “effect on coadministered contraceptive tablets” value in data set [3] is “decreases blood concentrations of both ethinyl estradiol and norethindrone”.

Take `C=C(c1ccc(C(=O)O)cc1)c1cc2c(cc1C)C(C)(C)CCC2(C)C` [bexarotene]: in data set [1], the “impact of food on bioavailability” value was “bioavailability is increased in the presence of food”.

For the molecule `CCOC(=O)c1ccc(C#Cc2ccc3c(c2)C(C)(C)CCS3)nc1` [tazarotene], the Conjunctivitis in data set [4] is 0 (0.0) NUMBER OF (%) OF PATIENTS. Besides, the Irritation of eyes in [4] is reported as 0 (0.0) NUMBER OF (%) OF PATIENTS. Moreover, the incidence of cheilitis in data set [5] is given as 66%. The joint disorder in data set [6] (2.8 mg, n=11, placebo 0%) was 27%; in data set [6] (3 mg, n=37), 14%; in [6] (6 mg, n=36) it was 19%. In addition, the arthralgia in data set [6] (2.8 mg, n=11, placebo 6%) was 9%; in [6] (3 mg, n=37), 8%; in data set [6] (6 mg, n=36), 28%. In addition, the myalgia in data set [6] (2.8 mg, n=11, placebo 9%) came to 0%; in data set [6] (3 mg, n=37), 16%; in data set [6] (6 mg, n=36), 25%. Also, the asthenia was determined as 0% in data set [6] (2.8 mg, n=11, placebo 13%); 19% in data set [6] (3 mg, n=37); 19% in [6] (6 mg, n=36). Further, the dry skin in data set [6] (2.8 mg, n=11, placebo 19%) is 18%; in data set [6] (3 mg, n=37), 35%; in [6] (6 mg, n=36), 50%. Further, the headache in data set [6] (2.8 mg, n=11, placebo 28%) was 9%; in [6] (3 mg, n=37), 19%; in data set [6] (6 mg, n=36), 36%. The cheilitis in [6] (2.8 mg, n=11, placebo 31%) is on record as 64%; in data set [6] (3 mg, n=37) it was 78%; in data set [6] (6 mg, n=36), 94%. The Emotional lability in data set [6] (3 mg group, placebo 2 (4%)) is 1 (3%) patient (%); in data set [6] (6 mg group), 5 (14%) patient (%). Also, in [6] (6 mg group), the Depression entry is “none”. Further, the “changes in urinalysis, chemistry, or hematology measures (incl. liver function tests, triglycerides, total cholesterol, HDL cholesterol)” value in data set [6] (0.4 to 6 mg daily) is listed as “no consistent dose-related clinically significant changes”. The “patients withdrawing from either study due to adverse events” value in data set [6] (7/277, all groups of both studies incl. placebo) was determined as 2.5%. For the same molecule, the “psoriasis symptoms and lesions” value in data set [7] was “symptoms of itching and burning are relieved”. Moreover, the “incidence of treatment success (≧50% global improvement) vs placebo” value in data set [8] (3 mg and 6 mg, week 24 and throughout post-treatment phase, p≦0.05) is “significantly higher”. Moreover, the “reduction of overall acne severity” value in [8] (6 mg, week 16 until end of post-treatment phase, p≦0.01) is reported as “significantly more than placebo”. Also, the “abnormalities in liver function test results or elevated triglycerides, total cholesterol, or HDL cholesterol” value in data set [8] (oral 0.75 to 6 mg once daily) is “not generally associated”. Moreover, in [9], the “effect on sebum secretion (Sebutape method)” value is “does not substantially reduce sebum secretion relative to placebo”.

Consider `CC1(C)CCSc2ccc(C#Cc3ccc(C(=O)O)cn3)cc21` [tazarotenic acid], for which the “effect of high-fat meal on bioavailability or pharmacokinetics” value in data set [10] (single and multiple dose) is reported as “does not substantially affect”. Besides, the figures for the “average ratio of Cmax values (test/reference)” value in data set [10] (Day 0) and in data set [10] (Day 9) were 1.00 and 0.829, respectively. Also, the “90% confidence intervals of AUC0-24 and Cmax for EE, NE, and NGM” value in data set [11] is on record as “within the 80-125% boundary”. In data set [12], the maximum blood concentration entry is “less than 30 ng/ml”.

These data come from US20050026957A1, “Methods of treating nodulocystic acne” (Allergan, Inc., priority 2003, published 2005).
